Laboratory results published in publication PMC3251254, “Mini-PEG spacering of VAP-1-targeting ^68Ga-DOTAVAP-P1 peptide improves PET imaging of inflammation” (EJNMMI Research, 2011).
Like-named read-outs stand apart in the source and are kept apart here. Residues, ends and D or L forms follow the SMILES beside them. *: point of attachment. DOTA = O=C(O)CN1CCN(CC(=O)O)CCN(CC(=O)*)CCN(CC(=O)O)CC1; AEEA = NCCOCCOCC(=O)O

Tests used:
[1] = type: in vitro ADME; conditions: plasma
Experimental: The in vitro stability of the ^68Ga-labelled peptides was evaluated in human and rat plasma. Several samples were taken during the 4-h incubation period at 37°C. Proteins from plasma samples were precipitated with 10% sulphosalicylic acid (1:1 v/v), centrifuged at 3,900 × g for 3 min at 4°C, and filtered through 0.45-μm Minispike filter (Waters Corporation). The filtrate was analysed by radio-HPLC.

[2] = in vivo, iv; for AUC / CL / blood-plasma ratio / metabolic half-life / plasma free fraction (fp): rat
Experimental: Blood samples (0.2 ml of each) were drawn at 5, 10, 15, 30, 45, 60 and 120 min after injection of ^68Ga-DOTA-peptides into heparinised tubes (Microvette 100; Sarstedt, Nümbrecht, Germany). Radioactivity of whole blood was measured with the gamma counter (Wizard, EG&G Wallac). Plasma was separated by centrifugation (2,200 × g for 5 min at 4°C), and plasma radioactivity was measured. The ratio of radioactivity in blood versus plasma was calculated. To determine plasma protein binding, proteins were precipitated with 10% sulphosalicylic acid, and the radioactivity in protein precipitate and supernatant was measured. The plasma supernatant was further analysed by radio-HPLC in order to evaluate the in vivo stability of the ^68Ga-labelled peptides.
In vivo stability data were used in order to generate metabolite-corrected plasma TACs for ^68Ga-DOTAVAP-P1 and ^68Ga-DOTAVAP-PEG-P1, which were further used for the calculation of pharmacokinetic parameters. The area under curve (AUC) of the plasma TAC from 0 to infinity was calculated using a non-compartmental analysis employing the trapezoidal rule. The clearance (CL) of the ^68Ga-labelled peptides after a single intravenous bolus dose was calculated by dividing the injected dose by the AUC. The plot of the natural logarithm of parent tracer concentration against time after bolus injection became linear in the end phase, as the tracer was eliminated according to the laws of first-order reaction kinetics. The elimination rate constant (kel) was calculated as the negative slope of the linear part of the plot. The plasma elimination half-life (t1/2) was calculated as t1/2 = ln(2)/kel. The metabolic half-lives of the ^68Ga-DOTA-peptides were calculated according to the results of radio-HPLC, i.e. the time point when 50% of the total radioactivity is still bound to the intact peptide.

| Structure (SMILES) | remaining at 4 h ([1]; human) | remaining at 4 h ([1]; rat) | proportion of unchanged peptide in rat plasma at 60 min after injection [2] | proportion of unchanged peptide in rat plasma at 120 min after injection [2] | AUC [2] | CL [2] | blood-plasma ratio [2] | metabolic half-life [2] | plasma free fraction (fp) [2] |
| --- | --- | --- | --- | --- | --- | --- | --- | --- | --- |
| NCCCC[C@H](NC(=O)CNC(=O)CNC(=O)CNC(=O)CNC(=O)CN1CCN(CC(=O)O)CCN(CC(=O)O)CCN(CC(=O)O)CC1)C(=O)NCC(=O)NCC(=O)NCC(=O)NCC(=O)O [^68Ga-DOTAVAP-P1, metal not drawn] ({DOTA}-GGGGKGGGG-OH) | 88 ± 3% | 82 ± 11% | 19 ± 4% | 4 ± 1% | 950 ± 170 min*kBq/ml | 0.017 ± 0.001 mL/min | 1.3 ± 0.1 | 0.4 h | 0.84 ± 0.04 |
| NCCCC[C@H](NC(=O)CNC(=O)CNC(=O)CNC(=O)CNC(=O)COCCOCCNC(=O)CN1CCN(CC(=O)O)CCN(CC(=O)O)CCN(CC(=O)O)CC1)C(=O)NCC(=O)NCC(=O)NCC(=O)NCC(=O)O [^68Ga-DOTAVAP-PEG-P1, metal not drawn] ({DOTA-AEEA}-GGGGKGGGG-OH) | 89 ± 8% | 90 ± 6% | 76 ± 18% | 49 ± 6% | 2,400 ± 68 min*kBq/ml | 0.008 ± 0.002 mL/min | 1.3 ± 0.1 | 2.08 h | 0.86 ± 0.02 |
